Legend:
F508delCFTR [1] = target: T1, F508delCFTR (Homo sapiens, UniProt P13569, DEL508-508); experiment: Cell Surface Expression-Horse Radish Peroxidase (CSE-HRP) assay, test compound without co-corrector; type: cell-based; details: for Emax: maximum at any tested concentration, normalized to positive control, without co-corrector; for EC50: test compound without co-corrector;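 as to Emax: percent of on-plate 2 µM positive control corrector response over DMSO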
T1 construct: expressed in transfected cells; host or cells: CFBE41o- human lung-derived epithelial cells (CFBE41o-F508delCFTR-HRP), doxycycline-inducible
How it was run: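 Compound without co-corrector was tested at eight 3-fold concentrations, top 20 μM, for 18-24 h at 33° C on doxycycline-induced (0.5 μg/mL, 72 h) CFBE41o- F508delCFTR-HRP cells. After DPBS washes, luminol luminescence gave % activity relative to on-plate positive control minus DMSO; EC50 came from triplicate-plate sigmoidal fitting.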

F508delCFTR [2] = target: T1, F508delCFTR; experiment: Cell Surface Expression-Horse Radish Peroxidase (CSE-HRP) assay, test compound with co-corrector; type: cell-based; details: with 2 μM co-corrector; for Maximum % activity (with co-corrector): maximum at any tested concentration, normalized to positive control;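 as to Maximum % activity (with co-corrector): percent of 2 µM positive control corrector over DMSO; co-corrector is that same compound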
How it was run: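 Surface-expression read-out: luminol luminescence from an HRP tag in the fourth exofacial loop of F508delCFTR, in doxycycline-induced (0.5 μg/mL, 72 h) CFBE41o- cells. Compound plus 2 μM co-corrector added for 18-24 h at 33° C., 8-point 3-fold series up to 20 μM. EC50 from a sigmoidal fit with variable Hill slope, normalised to positive control, triplicate plates.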

T1 sequence (P13569 with tags, fused parts or gaps DEL508-508): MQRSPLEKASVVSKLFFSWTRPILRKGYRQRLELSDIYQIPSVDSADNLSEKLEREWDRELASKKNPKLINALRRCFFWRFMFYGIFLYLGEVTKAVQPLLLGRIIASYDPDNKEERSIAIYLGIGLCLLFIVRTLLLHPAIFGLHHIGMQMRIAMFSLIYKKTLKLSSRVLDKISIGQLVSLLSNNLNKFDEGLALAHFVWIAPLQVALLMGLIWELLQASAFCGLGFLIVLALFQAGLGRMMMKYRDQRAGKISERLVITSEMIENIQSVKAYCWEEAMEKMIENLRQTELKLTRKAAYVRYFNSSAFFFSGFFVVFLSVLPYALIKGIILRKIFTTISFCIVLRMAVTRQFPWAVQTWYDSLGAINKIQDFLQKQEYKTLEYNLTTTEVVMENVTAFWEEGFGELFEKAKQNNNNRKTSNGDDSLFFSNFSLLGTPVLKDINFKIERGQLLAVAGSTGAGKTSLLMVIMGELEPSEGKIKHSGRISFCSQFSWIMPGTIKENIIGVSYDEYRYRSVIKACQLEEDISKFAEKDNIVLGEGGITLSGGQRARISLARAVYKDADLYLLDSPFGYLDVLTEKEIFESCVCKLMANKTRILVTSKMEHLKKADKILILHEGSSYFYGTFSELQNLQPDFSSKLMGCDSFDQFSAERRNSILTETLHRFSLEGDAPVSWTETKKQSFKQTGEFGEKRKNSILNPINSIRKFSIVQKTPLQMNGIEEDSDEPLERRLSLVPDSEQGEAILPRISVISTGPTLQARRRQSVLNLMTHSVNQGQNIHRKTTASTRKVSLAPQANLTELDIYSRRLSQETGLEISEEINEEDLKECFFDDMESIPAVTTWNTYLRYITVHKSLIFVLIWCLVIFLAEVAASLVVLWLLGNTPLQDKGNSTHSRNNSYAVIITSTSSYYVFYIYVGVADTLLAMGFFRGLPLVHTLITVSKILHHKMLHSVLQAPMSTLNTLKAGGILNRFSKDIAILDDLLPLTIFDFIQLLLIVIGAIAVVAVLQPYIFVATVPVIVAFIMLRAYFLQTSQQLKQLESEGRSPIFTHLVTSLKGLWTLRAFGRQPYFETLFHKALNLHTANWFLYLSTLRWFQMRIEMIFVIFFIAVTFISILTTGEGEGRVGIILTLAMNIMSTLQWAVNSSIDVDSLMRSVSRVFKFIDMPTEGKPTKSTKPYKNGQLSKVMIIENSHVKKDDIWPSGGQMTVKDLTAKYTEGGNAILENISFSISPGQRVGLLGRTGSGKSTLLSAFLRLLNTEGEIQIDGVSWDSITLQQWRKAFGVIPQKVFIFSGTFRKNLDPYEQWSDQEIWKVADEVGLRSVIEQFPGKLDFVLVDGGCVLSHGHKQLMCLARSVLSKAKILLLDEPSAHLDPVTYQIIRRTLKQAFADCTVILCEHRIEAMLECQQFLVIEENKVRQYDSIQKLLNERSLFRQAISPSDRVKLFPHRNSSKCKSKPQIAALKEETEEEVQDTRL

Row | Emax (F508delCFTR [1]) | EC50 (F508delCFTR [1]) | Maximum % activity (with co-corrector) (F508delCFTR [2]) | EC50 (F508delCFTR [2]) | Structure (SMILES)
1 | < 50% | < 3 µM | ++ (≥150 and <350) | < 3 µM | CCC1(C(=O)NS(=O)(=O)c2ccc(Br)c3ccccc23)CCc2c(Cl)cccc21 (stereo not drawn) [II-76]
2 | < 50% | < 3 µM | ++ (≥150 and <350) | < 3 µM | CCC1(C(=O)NS(=O)(=O)c2ccc(F)c3ccccc23)CCc2c(Cl)cccc21 (stereo not drawn) [II-77]
3 | 50 to 150% | < 3 µM | +++ (≥350) | < 3 µM | CCC1(C(=O)NS(=O)(=O)c2cccc3c(Br)cccc23)CCc2c(Cl)cccc21 (stereo not drawn) [II-78]
4 | 50 to 150% | < 3 µM | ++ (≥150 and <350) | < 3 µM | CCC1(C(=O)NS(=O)(=O)c2cccc3c2CCCC3)CCc2c(Cl)cccc21 (stereo not drawn) [II-79]
5 | < 50% | ≥ 10 µM | ++ (≥150 and <350) | 3 to 10 µM | CCC1(C(=O)NS(=O)(=O)c2ccc(C3CCC3)c3ccccc23)CCc2c(C3CCC3)cccc21 (stereo not drawn) [II-82]
6 | 50 to 150% | 3 to 10 µM | ++ (≥150 and <350) | 3 to 10 µM | CCC1(C(=O)NS(=O)(=O)c2cccc3c(C4CCC4)cccc23)CCc2c(C3CCC3)cccc21 (stereo not drawn) [II-83]
7 | 50 to 150% | 3 to 10 µM | ++ (≥150 and <350) | 3 to 10 µM | O=C(NS(=O)(=O)c1cccc2ccccc12)C1CCCc2c(OCC3CCCCC3)ccc(Br)c21 (stereo not drawn) [II-84]
8 | < 50% | 3 to 10 µM | ++ (≥150 and <350) | 3 to 10 µM | COc1cccc(COc2ccc(Br)c3c2CCCC3C(=O)NS(=O)(=O)c2cccc3ccccc23)c1 (stereo not drawn) [II-85]
9 | < 50% | ≥ 10 µM | ++ (≥150 and <350) | 3 to 10 µM | COc1cccc(COc2ccc(Br)c3c2CCCC3C(=O)N(Cc2cccc(OC)c2)S(=O)(=O)c2cccc3ccccc23)c1 (stereo not drawn) [II-86]
10 | < 50% | < 3 µM | ++ (≥150 and <350) | < 3 µM | CCOC(=O)COc1ccc(Br)c2c1CCCC2C(=O)NS(=O)(=O)c1cccc2ccccc12 (stereo not drawn) [II-87]
11 | 50 to 150% | 3 to 10 µM | +++ (≥350) | < 3 µM | O=C(NS(=O)(=O)c1cccc2ccccc12)C1CCCc2c(OC3CCCC3)ccc(Br)c21 (stereo not drawn) [II-88]
12 | 50 to 150% | 3 to 10 µM | ++ (≥150 and <350) | 3 to 10 µM | O=C(NS(=O)(=O)c1cccc2ccccc12)C1CCCc2c(OCc3ccccc3)ccc(Br)c21 (stereo not drawn) [II-89]
13 | < 50% | ≥ 10 µM | + (<150) | ≥ 10 µM | O=C(C1CCCc2c(OCc3ccccc3)ccc(Br)c21)N(Cc1ccccc1)S(=O)(=O)c1cccc2ccccc12 (stereo not drawn) [II-90]
14 | 50 to 150% | 3 to 10 µM | +++ (≥350) | < 3 µM | O=C(NS(=O)(=O)c1cccc2ccccc12)C1CCCc2c(OC3COC3)ccc(Br)c21 (stereo not drawn) [II-91]
15 | < 50% | 3 to 10 µM | ++ (≥150 and <350) | < 3 µM | O=C(NS(=O)(=O)c1cccc2ccccc12)C1CCCc2c(OC3CCOCC3)ccc(Br)c21 (stereo not drawn) [II-92]
16 | < 50% | ≥ 10 µM | + (<150) | < 3 µM | CC(C)(O)COc1ccc(Br)c2c1CCCC2C(=O)NS(=O)(=O)c1cccc2ccccc12 (stereo not drawn) [II-93]
17 | ≥ 150% | 3 to 10 µM | +++ (≥350) | < 3 µM | COc1cc2c(c(OC)c1)C(C(=O)NS(=O)(=O)c1cccc3ccccc13)CCC2 (stereo not drawn) [II-94]
18 | ≥ 150% | < 3 µM | +++ (≥350) | < 3 µM | COc1ccc(/C=C/c2ccccc2)c2c1CCCC2C(=O)NS(=O)(=O)c1cccc2ccccc12 (stereo not drawn) [II-96]
19 | ≥ 150% | < 3 µM | +++ (≥350) | < 3 µM | COc1ccc(-c2cccc3c2OC(F)(F)O3)c2c1CCCC2C(=O)NS(=O)(=O)c1cccc2ccccc12 (stereo not drawn) [II-97]
20 | ≥ 150% | < 3 µM | +++ (≥350) | < 3 µM | COc1ccc(-c2ccc(C)cc2F)c2c1CCCC2C(=O)NS(=O)(=O)c1cccc2ccccc12 (stereo not drawn) [II-98]
21 | ≥ 150% | < 3 µM | +++ (≥350) | < 3 µM | COc1ccc(-c2ccccc2Oc2ccccc2)c2c1CCCC2C(=O)NS(=O)(=O)c1cccc2ccccc12 (stereo not drawn) [II-99]

Row | Emax (F508delCFTR [1]) | EC50 (F508delCFTR [1]) | Maximum % activity (with co-corrector) (F508delCFTR [2]) | EC50 (F508delCFTR [2]) | Structure (SMILES)
22 | 50 to 150% | 3 to 10 µM | +++ (≥350) | 3 to 10 µM | CCC1(C(=O)NS(=O)(=O)c2cccc(Br)c2C)CCc2c(Cl)cccc21 (stereo not drawn) [II-100]
23 | < 50% | < 3 µM | ++ (≥150 and <350) | < 3 µM | CCC1(C(=O)NS(=O)(=O)c2cccc(F)c2C)CCc2c(Cl)cccc21 (stereo not drawn) [II-101]
24 | < 50% | 3 to 10 µM | ++ (≥150 and <350) | < 3 µM | CCC1(C(=O)NS(=O)(=O)c2ccccc2COC)CCc2c(Cl)cccc21 (stereo not drawn) [II-102]
25 | < 50% | ≥ 10 µM | + (<150) | < 3 µM | CCC1(C(=O)NS(=O)(=O)c2cccc(F)c2F)CCc2c(Cl)cccc21 (stereo not drawn) [II-103]
26 | < 50% | < 3 µM | ++ (≥150 and <350) | < 3 µM | CCC1(C(=O)NS(=O)(=O)c2ccccc2OCC(F)F)CCc2c(Cl)cccc21 (stereo not drawn) [II-104]
27 | < 50% | ≥ 10 µM | + (<150) | < 3 µM | CCC1(C(=O)NS(=O)(=O)c2cccc3nccnc23)CCc2c(Cl)cccc21 (stereo not drawn) [II-105]
28 | < 50% | ≥ 10 µM | ++ (≥150 and <350) | < 3 µM | CCC1(C(=O)NS(=O)(=O)c2cccc(Cl)c2F)CCc2c(Cl)cccc21 (stereo not drawn) [II-106]
29 | < 50% | < 3 µM | ++ (≥150 and <350) | < 3 µM | CCC1(C(=O)NS(=O)(=O)c2cccc(Cl)c2Cl)CCc2c(Cl)cccc21 (stereo not drawn) [II-107]
30 | 50 to 150% | 3 to 10 µM | +++ (≥350) | < 3 µM | CCC1(C(=O)NS(=O)(=O)c2cn(C)c3ccccc23)CCc2c(Cl)cccc21 (stereo not drawn) [II-108]
31 | ≥ 150% | 3 to 10 µM | +++ (≥350) | 3 to 10 µM | COc1ccc(CCC2OCCCO2)c2c1C(C(=O)NS(=O)(=O)c1cccc3ccccc13)CCC2 (stereo not drawn) [II-109]
32 | ≥ 150% | 3 to 10 µM | +++ (≥350) | < 3 µM | COc1ccc(C#N)c2c1C(C(=O)NS(=O)(=O)c1cccc3ccccc13)CC2 (stereo not drawn) [II-110]
33 | ≥ 150% | 3 to 10 µM | +++ (≥350) | < 3 µM | COc1ccc(C#N)c2c1C(C(=O)NS(=O)(=O)c1cccc3ccccc13)CCC2 (stereo not drawn) [II-111]
34 | < 50% | 3 to 10 µM | ++ (≥150 and <350) | < 3 µM | CCC1(C(=O)NS(=O)(=O)c2cccc(C3CCC3)c2C)CCc2c(Cl)cccc21 (stereo not drawn) [II-112]
35 | ≥ 150% | 3 to 10 µM | +++ (≥350) | < 3 µM | CCC1(C(=O)NS(=O)(=O)c2cccc3cnccc23)CCc2c(Cl)cccc21 (stereo not drawn) [II-113]
36 | ≥ 150% | 3 to 10 µM | +++ (≥350) | 3 to 10 µM | COc1cccc2c1C(C(=O)NS(=O)(=O)c1cccc3ccccc13)C2 (stereo not drawn) [II-114]
37 | ≥ 150% | 3 to 10 µM | +++ (≥350) | 3 to 10 µM | COc1ccc(Br)c2c1C(C(=O)NS(=O)(=O)c1cccc3cccnc13)CC2 (stereo not drawn) [II-116]
38 | ≥ 150% | 3 to 10 µM | +++ (≥350) | < 3 µM | COc1ccc(Br)c2c1C(C(=O)NS(=O)(=O)c1ccc(F)c3ncccc13)CC2 (stereo not drawn) [II-117]
39 | ≥ 150% | 3 to 10 µM | +++ (≥350) | < 3 µM | CCC1(C(=O)NS(=O)(=O)c2cccc3ccccc23)Cc2cccc(OC)c21 (stereo not drawn) [II-118]
40 | ≥ 150% | 3 to 10 µM | +++ (≥350) | 3 to 10 µM | COc1ccc(-c2cccc(OC(F)(F)F)c2)c2c1C(C(=O)NS(=O)(=O)c1cccc3ccccc13)CCC2 (stereo not drawn) [II-119]
41 | < 50% | 3 to 10 µM | ++ (≥150 and <350) | 3 to 10 µM | COc1ccc(/C=C/c2ccccc2)c2c1C(C(=O)NS(=O)(=O)c1cccc3ccccc13)CCC2 (stereo not drawn) [II-120]
42 | ≥ 150% | 3 to 10 µM | +++ (≥350) | < 3 µM | COc1ccc(C2=CCOCC2)c2c1C(C(=O)NS(=O)(=O)c1cccc3ccccc13)CCC2 (stereo not drawn) [II-121]

From patent publication US20180244611A1, “Modulators of the Cystic Fibrosis Transmembrane Conductance Regulator Protein and Methods of Use” (AbbVie S.à.r.l., priority 2017, published 2018)
